Assay results published in US7541339B2, “Par-2-activating peptide derivative and pharmaceutical composition using the same” (The University of Edinburgh, priority 2002, dated 2009).
Read-outs that look alike come from different tables or passages of the source. Peptide text beside a SMILES is read from it. * marks the point of attachment. 2Furoyl = O=C(c1ccco1)*

Biological target: T1, human PAR-2 (Homo sapiens, UniProt P55085)
T1 construct: Human colorectal adenocarcinoma cell line, HCT-15, expressing endogenous PAR-2 at high levels; endogenous in cells; host or cells: HCT-15 (human colorectal adenocarcinoma)
T1 sequence (P55085 26-397): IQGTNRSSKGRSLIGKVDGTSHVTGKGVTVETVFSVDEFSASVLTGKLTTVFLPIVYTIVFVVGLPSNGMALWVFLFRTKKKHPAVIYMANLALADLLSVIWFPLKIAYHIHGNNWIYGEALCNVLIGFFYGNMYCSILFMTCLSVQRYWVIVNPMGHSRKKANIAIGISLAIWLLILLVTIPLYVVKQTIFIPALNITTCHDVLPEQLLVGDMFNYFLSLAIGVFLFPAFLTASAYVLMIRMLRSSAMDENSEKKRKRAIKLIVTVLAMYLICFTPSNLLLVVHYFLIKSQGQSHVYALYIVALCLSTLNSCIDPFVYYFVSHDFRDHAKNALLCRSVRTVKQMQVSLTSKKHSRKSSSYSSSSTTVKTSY
Test: PAR-2 activation potency: intracellular calcium mobilization assay (modified Hawthorne's method) in HCT-15 cells
Assay type: cell-based
Source text: PAR-2 activation with the peptide derivative represented by the general formula (I) in accordance with the invention can be tested by various known methods. For example, the Hollenberg's method (Hollenberg, M. D., et al., Can. J. Physiol. Pharmacol., 75, 832-841 (1997)), the Kawabata's method (Kawabata, A., et al., J. Pharmacol. Exp. Ther., 288, 358-370 (1999)) and the Hawthorne's method (Howthorne et al., A High-Throughput Microtiter Plate-Based Calcium Assay for the Study of Protease-Activated Receptor 2 Activation, Analytical Biochemistry 290, 378-379 (2001)) may be used for the test.
The inventors tested the PAR-2 activation potency according to the modified Hawthorne's method. In brief, that is the assay of the calcium mobilization in cells endogenously expressing human PAR-2. In this assay, cells were loaded with Fluorescent Ca2+ indicator dye in presence of Probenecid, an inhibitor of anion exchange transporter, and stimulated with agonists. The agonist-mediated intracellular calcium mobilization was measured using multiwell plate reader.
Human colorectal adenocarcinoma cell line, HCT-15, expressing endogenous PAR-2 at high levels were seeded in 96-well black wall clear bottom plates and subconfluent cells were loaded with Fluorescent Ca2+ indicator dye (Calcium Plus Assay Reagent, Molecular Devices) in serum free medium (RPMI) containing 2.5 mM Probenecid and incubated for 1 hr at 37 C. Then cells were stimulated with various concentrations of test compounds and fluorescent change was determined at wave length of 485 nm for excitation and 525 nm for emission (Cutoff 515 nm) using multiwell scanning fluorometer (FlexStation, Molecular Devices).
SLIGKV-OH (SEQ ID NO: 2) as a known PAR-2 activation peptide was used as a comparative compound, and the results are shown below in Table 1.

| Compound | EC50 (HCT-15 cells expressing endogenous PAR-2, fluorescent Ca2+ indicator dye, 2.5 mM Probenecid, read-out: Agonist Activity (EC50)) | EC50 |
| --- | --- | --- |
| H-SLIGKV-OH [SLIGKV-OH, reference compound] | 22800 nM | – |
| CC[C@H](C)[C@H](NC(=O)[C@H](CC(C)C)NC(=O)c1ccco1)C(=O)NCC(=O)N[C@@H](CCCCN)C(=O)N[C@H](C(N)=O)C(C)C [Example 16] (2Furoyl-LIGKV-NH2; C-terminus assumed) | – | 320 nM |
| CC[C@H](C)[C@H](NC(=O)[C@H](CC(C)C)NC(=O)c1ccco1)C(=O)NCC(=O)N[C@@H](CCCCN)C(=O)N[C@H](C(=O)O)C(C)C [Example 6] (2Furoyl-LIGKV-OH; C-terminus assumed) | – | 1680 nM |
| CC[C@H](C)[C@H](NC(=O)[C@H](CC(C)C)NC(=O)c1ccco1)C(=O)NCC(=O)N[C@@H](CCCNC(=N)N)C(=O)N[C@@H](CC(C)C)C(=O)O [Example 18] | – | 1210 nM |
